Data reported in article PMC9917360, “Novel 1,4-Dihydropyridine Derivatives as Mineralocorticoid Receptor Antagonists” (International Journal of Molecular Sciences, 2023).

How the values were obtained:
[1] = molecular target: T1, human AR (Homo sapiens, UniProt P10275); test: AR reporter gene transactivation assay in COS-7 cells; assay type: cell-based; settings: 5 μM derivative, stimulation by 10 nM testosterone
T1 construct: Plasmid pCMV-FLAG-hAR, expressing full-length human AR; host or cells: COS-7
T1 sequence (P10275 1-920): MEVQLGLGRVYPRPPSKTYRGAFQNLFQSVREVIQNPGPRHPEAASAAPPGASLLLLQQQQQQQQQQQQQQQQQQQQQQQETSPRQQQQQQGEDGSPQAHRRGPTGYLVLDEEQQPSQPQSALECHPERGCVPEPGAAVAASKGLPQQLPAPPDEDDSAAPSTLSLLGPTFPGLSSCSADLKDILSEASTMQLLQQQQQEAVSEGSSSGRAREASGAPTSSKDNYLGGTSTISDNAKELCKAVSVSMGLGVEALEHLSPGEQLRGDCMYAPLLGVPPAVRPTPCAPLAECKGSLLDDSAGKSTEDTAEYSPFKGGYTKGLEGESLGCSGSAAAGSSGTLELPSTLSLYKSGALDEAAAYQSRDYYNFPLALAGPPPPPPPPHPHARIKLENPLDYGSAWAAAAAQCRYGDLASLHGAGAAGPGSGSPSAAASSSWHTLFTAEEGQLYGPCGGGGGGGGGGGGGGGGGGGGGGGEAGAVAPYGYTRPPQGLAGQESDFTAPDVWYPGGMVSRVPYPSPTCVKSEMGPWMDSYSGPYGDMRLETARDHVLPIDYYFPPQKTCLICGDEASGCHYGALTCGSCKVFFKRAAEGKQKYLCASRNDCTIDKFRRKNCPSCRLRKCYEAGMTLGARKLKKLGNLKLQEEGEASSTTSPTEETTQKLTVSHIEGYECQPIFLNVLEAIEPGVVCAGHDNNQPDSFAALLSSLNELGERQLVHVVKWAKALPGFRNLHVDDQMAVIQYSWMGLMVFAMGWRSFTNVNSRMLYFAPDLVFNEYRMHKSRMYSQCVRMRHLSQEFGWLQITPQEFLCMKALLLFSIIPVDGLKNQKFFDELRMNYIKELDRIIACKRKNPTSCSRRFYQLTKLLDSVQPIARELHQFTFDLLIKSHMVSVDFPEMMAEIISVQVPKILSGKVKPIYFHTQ
Experimental: (§1) Receptor transcriptional activity was assessed using a transactivation gene reporter assay, as described. Briefly, COS-7 cells were seeded on 96-well plates in DMEM supplemented with 10% charcoal-stripped FBS (Biowest, Nuaillé, France). Twenty-four hours after seeding, cells were transfected with pcDNA3-hMR, pcDNA3-hGR, or pCMV-FLAG-hAR in combination with pSG5-luc and pSG5-ren in a 5:4:1 proportion, respectively. […] After 2 h of incubation, cells were further treated with agonists (1 × 10^−8 M aldosterone; 1 × 10^−8 M testosterone or 0.5 × 10^−6 M cortisol) in the presence of each compound for 16 h. Assays using hMR included a control condition with 0.25 × 10^−6 M eplerenone. MR maximum and minimum activity were obtained in each assay using conditions with 1 × 10^−9 M aldosterone or vehicle (ethanol). Each condition was performed in three parallel wells. After treatments, firefly and Renilla luciferase activities were measured sequentially in the cell lysates using a commercially available kit (Dual-Glo; Promega, Madison, WI, USA). Receptor transcriptional activity was calculated as the ratio luc/ren. The activities in each condition were normalized to the activity obtained with vehicle or with agonist as indicated in each figure panel and are expressed a as percentage of the maximum value ± SD.

[2] = molecular target: T2, human MR (hMR) (Homo sapiens, UniProt P08235); test: MR gene reporter transactivation assay in transiently transfected COS-7 cells; assay type: cell-based; settings: 1,4-DHP derivative 5 μM, 10 nM aldosterone stimulation
T2 construct: expressed in transfected cells; host or cells: COS-7
T2 sequence (P08235 1-984): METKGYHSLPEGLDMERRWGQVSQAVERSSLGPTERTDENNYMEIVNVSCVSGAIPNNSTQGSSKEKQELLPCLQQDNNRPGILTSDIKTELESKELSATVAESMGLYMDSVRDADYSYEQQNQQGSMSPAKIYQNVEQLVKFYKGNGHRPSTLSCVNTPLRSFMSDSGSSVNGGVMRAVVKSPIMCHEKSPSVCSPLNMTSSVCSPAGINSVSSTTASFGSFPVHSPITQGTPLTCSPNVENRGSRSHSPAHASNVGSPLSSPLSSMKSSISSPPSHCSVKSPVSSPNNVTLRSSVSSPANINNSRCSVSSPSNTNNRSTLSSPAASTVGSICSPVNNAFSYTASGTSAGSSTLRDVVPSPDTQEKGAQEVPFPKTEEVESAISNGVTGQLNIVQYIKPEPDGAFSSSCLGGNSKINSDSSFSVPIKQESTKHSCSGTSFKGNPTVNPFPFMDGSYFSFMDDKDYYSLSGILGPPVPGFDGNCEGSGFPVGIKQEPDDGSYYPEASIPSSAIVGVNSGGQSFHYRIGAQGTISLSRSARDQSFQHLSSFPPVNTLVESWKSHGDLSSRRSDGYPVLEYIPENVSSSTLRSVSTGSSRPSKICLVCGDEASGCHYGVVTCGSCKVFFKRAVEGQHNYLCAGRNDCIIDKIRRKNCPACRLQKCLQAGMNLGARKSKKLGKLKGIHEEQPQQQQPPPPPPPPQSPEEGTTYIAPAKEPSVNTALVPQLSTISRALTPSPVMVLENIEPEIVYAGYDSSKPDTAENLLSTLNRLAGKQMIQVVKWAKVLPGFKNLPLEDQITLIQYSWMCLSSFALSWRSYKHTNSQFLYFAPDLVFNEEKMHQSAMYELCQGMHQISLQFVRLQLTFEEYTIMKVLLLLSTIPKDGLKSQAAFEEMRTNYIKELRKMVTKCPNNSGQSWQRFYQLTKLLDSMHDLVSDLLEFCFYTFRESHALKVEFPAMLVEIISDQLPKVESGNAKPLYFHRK
Experimental: as §1, with “Assays using hMR included a control condition with 0.25 × 10^−6 M eplerenone.” left out

[3] = molecular target: T2, human MR (hMR); test: [3H]-aldosterone displacement from human MR, ligand-receptor binding assay in transfected COS-7 cells; settings: 1 nM [3H]-aldosterone, increasing concentrations of unlabeled ligand, one-site model
Experimental: Ligand-receptor binding assays were performed as described before. Briefly, COS-7 cells were seeded on 24-well plates and transfected with plasmid pcDNA3-hMR. Twenty-four hours after transfection, cells were washed once with serum-free DMEM and incubated for 2 h in 500 μL of the same medium containing the indicated concentration of each compound. After this initial period, cells were further incubated with the indicated compounds and 1 × 10^−9 M [^3H]-aldosterone (PerkinElmer Life Sciences, Waltham, MA, USA) for one additional hour. Cells were then washed twice with phosphate-buffered saline (PBS: 137 mM NaCl, 2,7 mM KCl, 10 mM Na2HPO4, 1.8 mM KH2PO4, pH 7.4) and then extracted with 200 μL of an ethanol:water mix (4:1, v:v). Disintegrations were recorded using liquid scintillation in a β counter. Control conditions included non-transfected cells, transfected cells treated with unlabeled aldosterone or transfected cells, treated with 1 nM [^3H]-aldosterone in the presence of 1 × 10^−5 M unlabeled aldosterone. Specific binding was determined by subtracting the number of disintegrations per minute (dpm) in the presence of 1 × 10^−5 M unlabeled aldosterone from the condition with 1 nM [^3H]-aldosterone. Each condition was performed in triplicate. Competition of each compound for 1 nM [^3H]-aldosterone binding was calculated as the percentage of the maximum binding obtained in the absence of compound.

COC(=O)C1=C(CNC(=O)OCc2ccccc2)NC(C)=C(C#N)C1c1ccc(C#N)cc1OC (stereo not drawn) [Compound 16, Methyl 2-[(benzyloxycarbonyl)amino]methyl-5-cyano-4-(4-cyano-2-methoxy)phenyl-6-methyl-1,4-dihydropyridine-3-carboxylate]
decrease of AR activation [1]: 15%
MR activity, % of the maximal activity [2]: 57%
Ki [3]: 262 nM
